This is an account of results in PubChem BioAssay (NCI).

Some test systems named below: HCT-15 colon; UO-31 renal; OVCAR-5 ovarian; A498 renal; 786-0 renal; OVCAR-4 ovarian; EKVX NSCLC; MDA-MB-231 breast; SK-OV-3 ovarian; SK-MEL-28 melanoma.
Assay in all cases: NCI tumour cell line growth inhibition, 48 h

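Protocol summary: plate cells (96-well), add compound at 5 concentrations, incubate 48 h, interpolate endpoints linearly. GI50 = concentration required for 50% inhibition of growth. TGI: total growth inhibition.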

Regarding `CN(CCCN(C)CCC1CCCCC1)CCC1CCCCC1`, the GI50 was 2.02 µM in the assay with HCT-15 colon; 1.58 µM in the assay on UO-31 renal; 2.98 µM with OVCAR-5 ovarian; 5.14 µM in the assay with A498 renal; 3.46 µM in the assay with 786-0 renal; 3.35 µM in the assay with OVCAR-4 ovarian. Moreover, the GI50 in the assay on EKVX NSCLC is 2.24 µM; in the assay on MDA-MB-231 breast, 1.38 µM; in the assay on SK-OV-3 ovarian it was 5.34 µM; in the assay with SK-MEL-28 melanoma it was 1.91 µM. The TGI was found to be 8.21 µM in the assay with HCT-15 colon; 14.4 µM in the assay with UO-31 renal; 10.7 µM in the assay with OVCAR-5 ovarian; 13.8 µM with A498 renal; 13.7 µM in the assay with 786-0 renal; 14.6 µM with OVCAR-4 ovarian. Also, the TGI was determined as 11.1 µM with EKVX NSCLC, 4.68 µM with MDA-MB-231 breast, 17.1 µM in the assay with SK-OV-3 ovarian and 3.41 µM with SK-MEL-28 melanoma.

On to `Clc1ccc(/C=C/c2nc(Cl)c(-c3ccc(Cl)cc3)c(Cl)n2)cc1`, for which the TGI with HCT-15 colon was more than 100 µM; in the assay with UO-31 renal, 43.2 µM; with OVCAR-5 ovarian it was more than 100 µM; in the assay on A498 renal, more than 100 µM; in the assay on 786-0 renal it was more than 100 µM; with OVCAR-4 ovarian, more than 100 µM. Besides, the TGI with EKVX NSCLC, in the assay with MDA-MB-231 breast, with SK-OV-3 ovarian and in the assay with SK-MEL-28 melanoma was more than 100 µM each time.

In the case of `Cc1c(C(N)=O)sc2c1c(=O)n(Cc1ccccc1)c1nnc(S(=O)(=O)CC(=O)Nc3ccc(Cl)cc3)n21`, the GI50 with HCT-15 colon was 38.6 µM; in the assay with UO-31 renal, 2.86 µM; in the assay with OVCAR-5 ovarian, 10.9 µM; in the assay on A498 renal it was 1.26 µM; in the assay with 786-0 renal, 3.07 µM; in the assay with OVCAR-4 ovarian, 1.93 µM. Also, the GI50 is 5.89 µM in the assay on EKVX NSCLC, 4.24 µM in the assay with MDA-MB-231 breast, 3.24 µM with SK-OV-3 ovarian and 2.98 µM in the assay on SK-MEL-28 melanoma. Further, the TGI in the assay on HCT-15 colon is more than 100 µM; in the assay on UO-31 renal, 11.3 µM; in the assay on OVCAR-5 ovarian it was 52.1 µM; in the assay with A498 renal, 4.21 µM; in the assay with 786-0 renal it was 12.2 µM; with OVCAR-4 ovarian, 5.47 µM. The TGI with EKVX NSCLC was found to be 27.4 µM; with MDA-MB-231 breast, 18.5 µM; in the assay on SK-OV-3 ovarian, 7.81 µM; in the assay on SK-MEL-28 melanoma it was 8.45 µM.

On to `CN(C)c1ncnc2c1ccn2C1OC(CO)C(O)C1O` (stereo not given), for which the GI50 with HCT-15 colon is 1.1 µM; in the assay on UO-31 renal, 1.37 µM; with OVCAR-5 ovarian, 5.51 µM; with A498 renal, 3.49 µM; in the assay on 786-0 renal it was 3.98 µM; in the assay on OVCAR-4 ovarian, 2.02 µM. Besides, the GI50 in the assay on EKVX NSCLC was 3.98 µM; with MDA-MB-231 breast, 1.82 µM; with SK-OV-3 ovarian it was 0.884 µM; in the assay on SK-MEL-28 melanoma it was more than 100 µM. In addition, the TGI in the assay with HCT-15 colon was more than 66.2 µM; with UO-31 renal, 13.7 µM; with OVCAR-5 ovarian, more than 100 µM; with A498 renal, more than 100 µM; in the assay on 786-0 renal, 97.8 µM; in the assay with OVCAR-4 ovarian, 38.4 µM. The TGI is more than 92.3 µM in the assay with EKVX NSCLC, 5.96 µM in the assay on MDA-MB-231 breast, 21.4 µM in the assay on SK-OV-3 ovarian and more than 100 µM in the assay with SK-MEL-28 melanoma.

Consider `COC(=O)Nc1nc2ccc(S(=O)(=O)c3ccc(NC(=O)Nc4cc(C(F)(F)F)ccc4F)cc3)cc2[nH]1`, for which the GI50 with HCT-15 colon, with UO-31 renal, in the assay with OVCAR-5 ovarian, in the assay with A498 renal, in the assay with 786-0 renal and in the assay on OVCAR-4 ovarian was more than 25 µM in each case. Besides, the GI50 in the assay on EKVX NSCLC, with MDA-MB-231 breast, in the assay on SK-OV-3 ovarian and with SK-MEL-28 melanoma was more than 25 µM each time. In addition, the TGI in the assay on HCT-15 colon, in the assay with UO-31 renal, in the assay on OVCAR-5 ovarian, in the assay on A498 renal, with 786-0 renal and in the assay with OVCAR-4 ovarian was more than 25 µM each time. Besides, the TGI in the assay with EKVX NSCLC, in the assay on MDA-MB-231 breast, with SK-OV-3 ovarian and in the assay with SK-MEL-28 melanoma was more than 25 µM each time.

With `CN(C)CC1=Nc2cccc3cccc(c23)N1`, the TGI in the assay on HCT-15 colon came to 77.5 µM; with UO-31 renal, 23 µM; in the assay on OVCAR-5 ovarian, 31.6 µM; in the assay on A498 renal, 28.2 µM; in the assay with 786-0 renal, 25.8 µM; in the assay on OVCAR-4 ovarian, 26.6 µM. In addition, the TGI was 31.7 µM with EKVX NSCLC, 34.7 µM in the assay with MDA-MB-231 breast, more than 100 µM with SK-OV-3 ovarian and 49.1 µM with SK-MEL-28 melanoma.

Consider `CC(C)=CCc1cc(C2COc3cc4c(c(O)c3C2=O)C=CC(C)(C)O4)c(O)cc1O` (stereo not given), for which the TGI with HCT-15 colon came to 26.9 µM; with UO-31 renal, 26 µM; with OVCAR-5 ovarian it was 29.7 µM; in the assay on A498 renal, 33.2 µM; in the assay on 786-0 renal, 36.7 µM; in the assay on OVCAR-4 ovarian, 24.2 µM. Further, the TGI is 27.5 µM in the assay on EKVX NSCLC, 27.5 µM in the assay on MDA-MB-231 breast, 29.8 µM in the assay on SK-OV-3 ovarian and 50.4 µM in the assay on SK-MEL-28 melanoma.
